Experimental data from the kinase profiling compilation of Christmann-Franck et al. (2016).

Experiments:
Assay in all cases: radiometric filter-binding kinase assay
MAP2K1 (rabbit) = details: compound 10.0 µM; ATP 100 µM; accession and sequence are those of the human protein
RPS6KA1 (rat) = details: compound 10.0 µM; ATP 100 µM; accession and sequence are those of the human protein
LCK (human) = LCK (human) (UniProt P06239); details: ATP 100 µM; for residual activity: compound 10.0 µM
MAPK14 (human) = MAPK14 (human) (UniProt Q16539); details: compound 10.0 µM; ATP 100 µM
CSK (human) = CSK (human) (UniProt P41240); details: ATP 100 µM; for residual activity: compound 10.0 µM
[1] = biological target: CSNK2A1 or CSNK2A2 (human) (UniProt P19784+P68400); details: compound 10.0 µM; ATP 100 µM
GSK3B (human) = GSK3B (human) (UniProt P49841); details: compound 10.0 µM; ATP 100 µM
AKT1 (human) = AKT1 (human) (UniProt P31749); details: compound 10.0 µM; ATP 100 µM
CSNK1A1 (rat) = details: ATP 100 µM, accession and sequence are those of the human protein; for residual activity: compound 10.0 µM
ROCK2 (rat) = details: compound 10.0 µM; ATP 100 µM; accession and sequence are those of the human protein
MAPK1 (mouse) = details: compound 10.0 µM; ATP 100 µM; accession and sequence are those of the human protein
PHKG1 or PHKG2 (rabbit) = details: compound 10.0 µM; ATP 100 µM; accession and sequence are those of the human protein
[2] = biological target: SGK1 (human), O00141 [S422D]; details: ATP 100 µM; for residual activity: compound 10.0 µM
CDK2 CCNA2 (human) = CDK2 CCNA2 (human) (UniProt P24941+P20248); details: for residual activity: compound 10.0 µM, ATP 100 µM
MAPK8 (human) = MAPK8 (human) (UniProt P45983); details: compound 10.0 µM; ATP 100 µM
MAPK12 (human) = MAPK12 (human) (UniProt P53778); details: compound 10.0 µM; ATP 100 µM
PDPK1 (human) = PDPK1 (human) (UniProt O15530); details: compound 10.0 µM; ATP 100 µM
MAPKAPK5 (human) = MAPKAPK5 (human) (UniProt Q8IW41); details: ATP 100 µM; for residual activity: compound 10.0 µM
DYRK1A (rat) = details: ATP 100 µM, accession and sequence are those of the human protein; for residual activity: compound 10.0 µM
PRKACA or PRKACB (cow) = details: compound 10.0 µM; accession and sequence are those of the human protein
[3] = system: RPS6KB1 (human), P23443 [T412E]; details: compound 10.0 µM; ATP 100 µM
PRKCA (human) = PRKCA (human) (UniProt P17252); details: compound 10.0 µM; ATP 100 µM
PRKAA1 or PRKAA2 (rat) = details: ATP 100 µM, accession and sequence are those of the human protein; for residual activity: compound 10.0 µM
MAPKAPK2 (human) = MAPKAPK2 (human) (UniProt P49137); details: compound 10.0 µM; ATP 100 µM
CHEK1 (human) = CHEK1 (human) (UniProt O14757); details: compound 10.0 µM; ATP 100 µM
MAPK11 (human) = MAPK11 (human) (UniProt Q15759); details: compound 10.0 µM; ATP 100 µM
MAPK13 (human) = MAPK13 (human) (UniProt O15264); details: compound 10.0 µM; ATP 100 µM
RPS6KA5 KD1 KD2 (human) = RPS6KA5 KD1 KD2 (human) (UniProt O75582); details: compound 10.0 µM; ATP 100 µM

Chain of CHEK1 (human) (O14757 whole entry, looked up): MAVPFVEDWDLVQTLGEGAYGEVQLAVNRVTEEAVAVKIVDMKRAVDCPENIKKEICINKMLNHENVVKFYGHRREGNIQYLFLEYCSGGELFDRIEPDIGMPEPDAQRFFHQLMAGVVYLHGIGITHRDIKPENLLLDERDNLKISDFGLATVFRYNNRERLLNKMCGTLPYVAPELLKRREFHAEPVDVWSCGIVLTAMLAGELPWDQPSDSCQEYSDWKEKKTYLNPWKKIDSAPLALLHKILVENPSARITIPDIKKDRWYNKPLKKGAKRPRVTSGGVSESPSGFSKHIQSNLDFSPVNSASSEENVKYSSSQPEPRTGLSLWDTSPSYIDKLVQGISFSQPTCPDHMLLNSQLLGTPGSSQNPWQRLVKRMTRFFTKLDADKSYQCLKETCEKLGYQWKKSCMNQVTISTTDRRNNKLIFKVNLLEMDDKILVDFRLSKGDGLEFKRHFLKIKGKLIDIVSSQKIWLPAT
Chain of GSK3B (human) (P49841 whole entry, looked up): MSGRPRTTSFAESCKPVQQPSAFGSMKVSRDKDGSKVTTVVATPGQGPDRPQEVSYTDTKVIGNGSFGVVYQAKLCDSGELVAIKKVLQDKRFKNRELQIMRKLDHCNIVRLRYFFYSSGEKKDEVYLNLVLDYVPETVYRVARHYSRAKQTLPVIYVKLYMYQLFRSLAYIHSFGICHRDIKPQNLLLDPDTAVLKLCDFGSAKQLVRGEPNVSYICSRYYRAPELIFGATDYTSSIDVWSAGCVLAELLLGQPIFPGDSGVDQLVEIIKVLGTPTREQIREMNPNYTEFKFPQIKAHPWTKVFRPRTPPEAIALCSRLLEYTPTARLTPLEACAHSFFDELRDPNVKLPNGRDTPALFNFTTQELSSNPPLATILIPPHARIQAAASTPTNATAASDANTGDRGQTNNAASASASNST
Chain of MAPK14 (human) (Q16539 whole entry, looked up): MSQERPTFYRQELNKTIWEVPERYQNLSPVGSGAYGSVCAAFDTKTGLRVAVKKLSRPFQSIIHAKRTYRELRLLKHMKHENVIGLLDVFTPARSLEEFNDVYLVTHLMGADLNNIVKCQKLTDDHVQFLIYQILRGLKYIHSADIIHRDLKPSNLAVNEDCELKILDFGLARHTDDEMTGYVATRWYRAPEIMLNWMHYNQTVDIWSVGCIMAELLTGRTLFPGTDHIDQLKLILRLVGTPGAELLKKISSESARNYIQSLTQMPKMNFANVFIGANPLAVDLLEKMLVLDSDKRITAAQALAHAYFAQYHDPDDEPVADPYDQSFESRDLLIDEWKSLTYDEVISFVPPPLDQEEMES
Chain of MAPK8 (human) (P45983 whole entry, looked up): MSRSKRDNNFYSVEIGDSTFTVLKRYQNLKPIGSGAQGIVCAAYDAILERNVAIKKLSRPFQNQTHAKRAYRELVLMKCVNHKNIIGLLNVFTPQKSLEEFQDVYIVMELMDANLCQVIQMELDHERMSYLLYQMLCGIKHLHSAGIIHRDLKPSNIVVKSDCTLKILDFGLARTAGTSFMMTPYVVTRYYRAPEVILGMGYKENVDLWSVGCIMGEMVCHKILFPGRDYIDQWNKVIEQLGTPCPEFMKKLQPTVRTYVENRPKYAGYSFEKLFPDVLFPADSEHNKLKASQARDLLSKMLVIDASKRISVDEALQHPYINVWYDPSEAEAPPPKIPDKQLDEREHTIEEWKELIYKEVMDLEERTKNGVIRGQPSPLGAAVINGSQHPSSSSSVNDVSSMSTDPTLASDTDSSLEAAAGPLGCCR
Chain of AKT1 (human) (P31749 whole entry, looked up): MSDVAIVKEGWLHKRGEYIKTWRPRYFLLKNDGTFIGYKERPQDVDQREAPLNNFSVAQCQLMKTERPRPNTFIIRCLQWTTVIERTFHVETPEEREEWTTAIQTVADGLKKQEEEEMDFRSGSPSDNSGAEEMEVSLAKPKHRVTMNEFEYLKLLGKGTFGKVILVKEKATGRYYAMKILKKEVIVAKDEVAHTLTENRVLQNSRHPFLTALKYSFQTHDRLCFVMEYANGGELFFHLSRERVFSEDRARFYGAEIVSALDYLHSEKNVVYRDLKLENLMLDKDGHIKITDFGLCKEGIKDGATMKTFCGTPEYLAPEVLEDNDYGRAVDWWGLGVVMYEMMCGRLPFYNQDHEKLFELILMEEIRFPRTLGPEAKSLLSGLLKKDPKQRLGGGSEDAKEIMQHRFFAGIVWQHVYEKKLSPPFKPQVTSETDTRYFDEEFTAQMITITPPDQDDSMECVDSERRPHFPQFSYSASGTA
Chain of LCK (human) (P06239 whole entry, looked up): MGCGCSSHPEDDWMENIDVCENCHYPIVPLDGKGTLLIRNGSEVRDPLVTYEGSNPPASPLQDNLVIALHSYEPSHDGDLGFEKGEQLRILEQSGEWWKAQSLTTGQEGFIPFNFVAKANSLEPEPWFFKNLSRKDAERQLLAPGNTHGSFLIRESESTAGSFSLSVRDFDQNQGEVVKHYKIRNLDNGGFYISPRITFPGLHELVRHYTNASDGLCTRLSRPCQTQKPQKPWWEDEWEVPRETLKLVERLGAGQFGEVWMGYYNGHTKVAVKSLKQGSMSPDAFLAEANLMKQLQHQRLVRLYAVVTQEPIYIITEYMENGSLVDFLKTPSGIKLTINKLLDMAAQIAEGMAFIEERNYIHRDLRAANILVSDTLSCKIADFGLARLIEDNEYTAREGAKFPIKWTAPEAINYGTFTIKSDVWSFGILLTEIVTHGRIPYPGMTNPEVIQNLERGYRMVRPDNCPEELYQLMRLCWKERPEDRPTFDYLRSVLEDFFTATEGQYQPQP
Chain of MAPKAPK5 (human) (Q8IW41 whole entry, looked up): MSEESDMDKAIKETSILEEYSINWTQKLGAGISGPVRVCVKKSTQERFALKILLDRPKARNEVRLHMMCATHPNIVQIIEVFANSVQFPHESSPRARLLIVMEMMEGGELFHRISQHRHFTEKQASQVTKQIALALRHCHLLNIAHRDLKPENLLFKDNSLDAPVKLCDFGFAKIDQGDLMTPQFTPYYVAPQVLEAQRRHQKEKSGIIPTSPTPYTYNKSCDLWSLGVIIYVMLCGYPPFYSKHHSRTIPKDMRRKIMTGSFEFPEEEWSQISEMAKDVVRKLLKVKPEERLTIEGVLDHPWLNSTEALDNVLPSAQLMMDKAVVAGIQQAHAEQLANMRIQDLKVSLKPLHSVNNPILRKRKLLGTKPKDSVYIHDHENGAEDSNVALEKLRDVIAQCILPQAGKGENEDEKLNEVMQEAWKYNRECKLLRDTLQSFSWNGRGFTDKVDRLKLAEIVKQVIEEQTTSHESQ
Chain of RPS6KB1 (human), P23443 [T412E] (P23443 whole entry T412E, looked up): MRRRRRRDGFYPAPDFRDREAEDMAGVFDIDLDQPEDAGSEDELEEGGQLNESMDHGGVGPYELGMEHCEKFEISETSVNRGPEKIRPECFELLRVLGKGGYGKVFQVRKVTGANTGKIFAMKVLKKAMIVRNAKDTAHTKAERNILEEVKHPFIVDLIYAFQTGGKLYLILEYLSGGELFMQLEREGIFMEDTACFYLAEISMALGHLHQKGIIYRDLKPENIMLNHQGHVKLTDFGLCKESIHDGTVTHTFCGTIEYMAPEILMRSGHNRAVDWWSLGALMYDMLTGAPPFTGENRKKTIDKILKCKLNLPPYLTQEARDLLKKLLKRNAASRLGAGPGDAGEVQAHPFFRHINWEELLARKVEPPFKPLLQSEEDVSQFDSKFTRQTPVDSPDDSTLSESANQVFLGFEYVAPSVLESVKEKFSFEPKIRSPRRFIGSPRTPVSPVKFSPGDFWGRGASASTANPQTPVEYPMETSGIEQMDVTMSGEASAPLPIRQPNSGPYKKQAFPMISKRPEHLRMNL
Chain of PDPK1 (human) (O15530 whole entry, looked up): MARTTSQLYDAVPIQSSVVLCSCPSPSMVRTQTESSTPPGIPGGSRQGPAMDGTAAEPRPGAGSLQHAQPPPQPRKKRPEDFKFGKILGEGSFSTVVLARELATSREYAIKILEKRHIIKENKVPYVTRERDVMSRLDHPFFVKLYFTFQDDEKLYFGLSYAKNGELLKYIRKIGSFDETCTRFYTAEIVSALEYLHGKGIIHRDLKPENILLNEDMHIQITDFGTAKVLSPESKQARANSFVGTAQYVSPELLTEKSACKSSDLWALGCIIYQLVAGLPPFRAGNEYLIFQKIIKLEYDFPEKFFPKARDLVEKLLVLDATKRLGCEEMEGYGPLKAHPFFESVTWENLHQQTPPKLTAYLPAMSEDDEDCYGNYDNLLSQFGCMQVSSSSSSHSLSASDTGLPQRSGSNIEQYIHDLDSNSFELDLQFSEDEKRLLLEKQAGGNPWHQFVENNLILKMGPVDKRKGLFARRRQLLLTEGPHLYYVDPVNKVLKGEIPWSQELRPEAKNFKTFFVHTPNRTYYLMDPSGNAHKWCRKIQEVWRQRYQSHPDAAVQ
Chain of CDK2 CCNA2 (human) (P20248 whole entry, looked up, other chains not shown): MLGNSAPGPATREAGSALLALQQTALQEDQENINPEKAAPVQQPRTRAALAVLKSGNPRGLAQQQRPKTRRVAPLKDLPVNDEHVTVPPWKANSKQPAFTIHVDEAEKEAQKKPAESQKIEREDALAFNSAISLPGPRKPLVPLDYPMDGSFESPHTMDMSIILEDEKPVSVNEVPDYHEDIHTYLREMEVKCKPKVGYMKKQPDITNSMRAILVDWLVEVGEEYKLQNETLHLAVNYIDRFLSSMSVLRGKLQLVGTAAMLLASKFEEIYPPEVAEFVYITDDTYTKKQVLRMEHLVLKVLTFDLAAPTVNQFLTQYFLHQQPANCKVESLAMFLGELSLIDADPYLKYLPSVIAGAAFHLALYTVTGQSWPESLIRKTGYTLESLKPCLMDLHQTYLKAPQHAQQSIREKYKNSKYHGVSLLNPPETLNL

Row | residual activity (MAP2K1 (rabbit)) | residual activity (RPS6KA1 (rat)) | residual activity (CSK (human)) | residual activity [1] | residual activity (GSK3B (human)) | residual activity (AKT1 (human)) | residual activity (CSNK1A1 (rat)) | residual activity (ROCK2 (rat)) | residual activity (MAPK1 (mouse)) | residual activity (PHKG1 or PHKG2 (rabbit)) | residual activity [2] | residual activity (MAPK8 (human)) | residual activity (PDPK1 (human)) | residual activity (MAPKAPK5 (human)) | residual activity [3] | residual activity (PRKCA (human)) | residual activity (PRKAA1 or PRKAA2 (rat)) | residual activity (MAPKAPK2 (human)) | residual activity (MAPK11 (human)) | residual activity (RPS6KA5 KD1 KD2 (human)) | Structure (SMILES) | further results
1 | 94% | 20% | 105% | 82% | 6% | 62% | 38% | 15% | 104% | 102% | 9% | 21% | 27% | 38% | 20% | 68% | 6% | 69% | 45% | 40% | O=C1Nc2ccccc2/C1=C1\Nc2ccccc2\C1=N/O | IC50 (LCK (human)): 300 nM; residual activity (LCK (human)): 11%; residual activity (MAPK14 (human)): 83%; IC50 [2]: 380 nM; IC50 (CDK2 CCNA2 (human)): 590 nM; residual activity (CDK2 CCNA2 (human)): 18%; residual activity (MAPK12 (human)): 74%; residual activity (DYRK1A (rat)): 62%; residual activity (PRKACA or PRKACB (cow)): 80%; IC50 (PRKAA1 or PRKAA2 (rat)): 220 nM; residual activity (CHEK1 (human)): 38%; residual activity (MAPK13 (human)): 65%
2 | 96% |  | 90% | 67% | 4% | 61% | 86% | 45% | 64% | 77% | 42% | 89% | 41% | 78% | 64% | 93% | 36% | 40% | 64% | 98% | O=C1Cc2c([nH]c3ccc([N+](=O)[O-])cc23)-c2ccccc2N1 | residual activity (LCK (human)): 19%; residual activity (MAPK14 (human)): 79%; residual activity (CDK2 CCNA2 (human)): 5%; residual activity (MAPK12 (human)): 55%; residual activity (DYRK1A (rat)): 102%; residual activity (PRKACA or PRKACB (cow)): 79%
3 | 55% | 114% | 3% | 90% | 113% | 77% | 6% | 75% | 61% | 93% | 111% | 98% | 99% | 85% | 70% | 66% | 84% | 106% | 26% | 57% | CC(C)(C)n1nc(-c2ccc(Cl)cc2)c2c(N)ncnc21 | residual activity (MAPK14 (human)): 21%; residual activity (CDK2 CCNA2 (human)): 68%; residual activity (MAPK12 (human)): 90%; residual activity (DYRK1A (rat)): 94%; residual activity (PRKACA or PRKACB (cow)): 74%; residual activity (CHEK1 (human)): 93%; residual activity (MAPK13 (human)): 96%
4 | 94% | 109% | 76% | 105% | 78% | 87% | 105% | 53% | 53% | 78% | 104% | 76% | 50% | 10% | 87% | 76% | 101% | 79% | 87% | 88% | O=C(O[C@@H]1Cc2c(O)cc(O)cc2O[C@@H]1c1cc(O)c(O)c(O)c1)c1cc(O)c(O)c(O)c1 | residual activity (LCK (human)): 89%; residual activity (MAPK14 (human)): 105%; residual activity (CDK2 CCNA2 (human)): 97%; residual activity (MAPK12 (human)): 85%; IC50 (MAPKAPK5 (human)): 1000 nM; IC50 (DYRK1A (rat)): 330 nM; residual activity (DYRK1A (rat)): 9%; residual activity (PRKACA or PRKACB (cow)): 109%; residual activity (CHEK1 (human)): 79%; residual activity (MAPK13 (human)): 60%
5 | 93% | 69% | 109% | 101% | 106% | 89% |  | 94% | 81% | 80% | 104% | 91% | 104% | 87% | 94% | 101% | 95% | 85% | 104% | 92% | CC[C@@H](CO)Nc1nc(NCc2ccccc2)c2ncn(C(C)C)c2n1 | residual activity (LCK (human)): 97%; residual activity (PRKACA or PRKACB (cow)): 93%; residual activity (CHEK1 (human)): 95%; residual activity (MAPK13 (human)): 106%
6 | 89% | 115% | 96% | 76% | 99% | 108% | 54% | 93% | 92% | 99% | 94% | 99% | 82% | 97% | 93% | 100% | 94% | 98% | 84% | 93% | Nc1ncnc2c1cnn2-c1ccccc1 | residual activity (MAPK14 (human)): 100%; IC50 (CSNK1A1 (rat)): 9900 nM; residual activity (CDK2 CCNA2 (human)): 84%; residual activity (MAPK12 (human)): 83%; residual activity (DYRK1A (rat)): 60%; residual activity (CHEK1 (human)): 96%; residual activity (MAPK13 (human)): 95%
7 | 52% | 69% | 3% | 96% | 86% | 97% | 8% | 65% | 75% | 70% | 94% | 98% | 97% | 85% | 43% | 80% | 93% | 96% | 22% | 55% | Cc1ccc(-c2nn(C(C)(C)C)c3ncnc(N)c23)cc1 | residual activity (LCK (human)): 0%; residual activity (MAPK14 (human)): 13%; IC50 (CSK (human)): 520 nM; residual activity (CDK2 CCNA2 (human)): 75%; residual activity (DYRK1A (rat)): 101%; residual activity (PRKACA or PRKACB (cow)): 76%; residual activity (CHEK1 (human)): 91%; residual activity (MAPK13 (human)): 102%
8 | 103% | 86% | 86% | 99% | 6% | 86% | 99% | 53% | 70% | 110% | 92% | 128% | 52% | 83% | 117% | 120% | 72% | 110% | 108% | 92% | O=C1Cc2c([nH]c3ccc(Br)cc23)-c2ccccc2N1 | residual activity (CDK2 CCNA2 (human)): 22%; residual activity (MAPK12 (human)): 87%; residual activity (DYRK1A (rat)): 116%; residual activity (PRKACA or PRKACB (cow)): 109%; residual activity (CHEK1 (human)): 65%; residual activity (MAPK13 (human)): 104%
